ChEMBL document CHEMBL5625190, “Novel fused imidazotriazines acting as promising top. II inhibitors and apoptotic inducers with greater selectivity against head and neck tumors: Design, synthesis, and biological assessments” (Eur J Med Chem, 2023)

Tests used:
HNO 97 cell line = assay: Growth inhibition of human HNO 97 cell line assessed as reduction in cell viability at 100 ug/ml by SRB colorimetric assay relative to control; format: functional; conditions: read-out: GI
MDA-MB-231 = assay: Growth inhibition of human MDA-MB-231 cells assessed as reduction in cell viability at 100 ug/ml by SRB colorimetric assay relative to control; format: functional; conditions: read-out: GI
HepG2 = assay: Growth inhibition of human HepG2 cells assessed as reduction in cell viability at 100 ug/ml by SRB colorimetric assay relative to control; format: functional; conditions: read-out: GI
Huh-7 = assay: Growth inhibition of human Huh-7 cells assessed as reduction in cell viability at 100 ug/ml by SRB colorimetric assay relative to control; format: functional; conditions: read-out: GI
PC-3 = assay: Growth inhibition of human PC-3 cells assessed as reduction in cell viability at 100 ug/ml by SRB colorimetric assay relative to control; format: functional; conditions: read-out: GI
A-375 = assay: Growth inhibition of human A-375 cells assessed as reduction in cell viability at 100 ug/ml by SRB colorimetric assay relative to control; format: functional; conditions: read-out: GI
MCF7 = assay: Growth inhibition of human MCF7 cells assessed as reduction in cell viability at 100 ug/ml by SRB colorimetric assay relative to control; format: functional; conditions: read-out: GI
HCT-116 = assay: Growth inhibition of human HCT-116 cells assessed as reduction in cell viability at 100 ug/ml by SRB colorimetric assay relative to control; format: functional; conditions: read-out: GI
Caco-2 = assay: Growth inhibition of human Caco-2 cells assessed as reduction in cell viability at 100 ug/ml by SRB colorimetric assay relative to control; format: functional; conditions: read-out: GI
MG-63 = assay: Growth inhibition of human MG-63 cells assessed as reduction in cell viability at 100 ug/ml by SRB colorimetric assay relative to control; format: functional; conditions: read-out: GI
NCI-H460 = assay: Growth inhibition of human NCI-H460 cells assessed as reduction in cell viability at 100 ug/ml by SRB colorimetric assay relative to control; format: functional; conditions: read-out: GI
A549 = assay: Growth inhibition of human A549 cells assessed as reduction in cell viability at 100 ug/ml by SRB colorimetric assay relative to control; format: functional; conditions: read-out: GI
BT-474 = assay: Growth inhibition of human BT-474 cells assessed as reduction in cell viability at 100 ug/ml by SRB colorimetric assay relative to control; format: functional; conditions: read-out: GI
[1] = Growth inhibition of human Oral epithelial cell assessed as reduction in cell viability at 100 ug/ml by SRB colorimetric assay relative to control; format: toxicity, cell-based; conditions: oral epithelial cells, at 100 µg/mL, read-out: GI
[2] = target: DNA topoisomerase 2-beta (Homo sapiens) (UniProt Q02880); assay: Inhibition of human DNA topoisomerase 2-beta by ELISA method relative to control; conditions: concentration not given here
DNA topoisomerase 2-beta (Homo sapiens), sequence (Q02880 whole entry): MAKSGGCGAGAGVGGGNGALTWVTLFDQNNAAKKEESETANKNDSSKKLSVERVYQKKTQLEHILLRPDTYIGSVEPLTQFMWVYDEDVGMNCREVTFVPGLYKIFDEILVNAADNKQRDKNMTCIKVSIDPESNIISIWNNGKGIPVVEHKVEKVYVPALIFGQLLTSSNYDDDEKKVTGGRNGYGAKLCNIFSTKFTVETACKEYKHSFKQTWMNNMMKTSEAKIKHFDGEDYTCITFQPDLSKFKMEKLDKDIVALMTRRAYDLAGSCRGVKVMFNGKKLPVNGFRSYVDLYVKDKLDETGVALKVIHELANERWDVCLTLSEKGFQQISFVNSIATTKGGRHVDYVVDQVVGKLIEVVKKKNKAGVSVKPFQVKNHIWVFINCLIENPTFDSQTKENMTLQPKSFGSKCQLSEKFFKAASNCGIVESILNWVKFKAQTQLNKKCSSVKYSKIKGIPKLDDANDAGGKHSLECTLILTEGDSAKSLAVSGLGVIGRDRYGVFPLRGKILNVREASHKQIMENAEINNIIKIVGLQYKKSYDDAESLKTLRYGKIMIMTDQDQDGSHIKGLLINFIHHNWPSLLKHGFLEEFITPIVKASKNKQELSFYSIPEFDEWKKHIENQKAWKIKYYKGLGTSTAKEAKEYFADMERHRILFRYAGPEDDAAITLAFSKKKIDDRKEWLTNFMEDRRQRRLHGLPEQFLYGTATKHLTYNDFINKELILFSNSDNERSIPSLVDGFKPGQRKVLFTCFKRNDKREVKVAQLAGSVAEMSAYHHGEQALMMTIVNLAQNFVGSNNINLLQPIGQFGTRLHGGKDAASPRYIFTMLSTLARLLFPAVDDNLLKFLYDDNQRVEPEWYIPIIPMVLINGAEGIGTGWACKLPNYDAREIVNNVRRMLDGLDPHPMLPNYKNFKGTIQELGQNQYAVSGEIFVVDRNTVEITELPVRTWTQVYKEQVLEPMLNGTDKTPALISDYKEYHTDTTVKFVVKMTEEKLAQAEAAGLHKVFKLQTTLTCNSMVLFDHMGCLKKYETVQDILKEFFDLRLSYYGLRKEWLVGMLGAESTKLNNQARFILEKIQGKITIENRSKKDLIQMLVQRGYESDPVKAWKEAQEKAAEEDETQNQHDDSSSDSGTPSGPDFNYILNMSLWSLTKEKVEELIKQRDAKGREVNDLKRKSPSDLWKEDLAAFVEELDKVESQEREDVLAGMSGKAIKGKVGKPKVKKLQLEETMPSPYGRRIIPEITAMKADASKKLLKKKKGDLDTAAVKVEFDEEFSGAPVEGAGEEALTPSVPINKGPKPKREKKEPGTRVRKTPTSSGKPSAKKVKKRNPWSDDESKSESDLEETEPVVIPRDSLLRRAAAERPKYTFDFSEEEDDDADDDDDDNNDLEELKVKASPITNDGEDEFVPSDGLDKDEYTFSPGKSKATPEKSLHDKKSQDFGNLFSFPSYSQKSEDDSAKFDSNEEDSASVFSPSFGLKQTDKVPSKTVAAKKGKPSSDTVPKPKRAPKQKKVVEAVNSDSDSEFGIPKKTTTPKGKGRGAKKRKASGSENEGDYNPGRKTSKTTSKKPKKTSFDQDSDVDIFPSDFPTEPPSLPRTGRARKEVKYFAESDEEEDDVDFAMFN

Compound	inhibition of growth at 100 µg/mL (HNO 97 cell line)	inhibition of growth at 100 µg/mL (MDA-MB-231)	inhibition of growth at 100 µg/mL (HepG2)	inhibition of growth at 100 µg/mL (Huh-7)	inhibition of growth at 100 µg/mL (PC-3)	inhibition of growth at 100 µg/mL (A-375)	inhibition of growth at 100 µg/mL (MCF7)	inhibition of growth at 100 µg/mL (HCT-116)	inhibition of growth at 100 µg/mL (Caco-2)	inhibition of growth at 100 µg/mL (MG-63)	inhibition of growth at 100 µg/mL (NCI-H460)	inhibition of growth at 100 µg/mL (A549)	inhibition of growth at 100 µg/mL (BT-474)	inhibition at 100 ug/ml [1]	inhibition [2]
NC1=Nc2nc3ccccc3n2C(c2cccs2)N1 (configuration not stated)	71.8%	38.7%	64.9%	65%	48%	56.4%	56.2%	64.4%	62.9%	49.9%	58.8%	61.4%	5.76%	59.6%	–
NC1=NC(c2ccccc2)n2c(nc3ccccc32)N1 (configuration not stated)	78.1%	68.2%	66.6%	68.1%	72.7%	63.4%	60.2%	61.1%	61.7%	56%	65.3%	59.1%	51.4%	24.4%	–
NC1=Nc2nc3ccccc3n2C(c2cccc3ccccc23)N1 (configuration not stated)	61.1%	76.2%	59%	58.7%	59%	52.8%	53.7%	55.7%	59.9%	58%	61.1%	54.4%	61.4%	45.9%	–
COc1ccc(OC)c(C2N=C(N)Nc3nc4ccccc4n32)c1 (configuration not stated)	76.6%	64.9%	63.6%	54.8%	46%	52.1%	54.4%	49.3%	52.5%	46.8%	63.2%	54.9%	46.3%	10.2%	–
Cc1ccc(C2NC(N)=Nc3nc4ccccc4n32)o1 (configuration not stated)	57.5%	27.4%	61.5%	50%	55.2%	58.5%	51.6%	60.9%	56.2%	50.6%	61.6%	56.2%	13.2%	59.7%	–
NC1=Nc2nc3ccccc3n2C(c2c[nH]c3ccccc23)N1 (configuration not stated)	75.3%	34.3%	69.2%	65.3%	54.2%	69.2%	56.5%	64.3%	61.7%	56.2%	63.5%	58.8%	34.4%	51.3%	–
NC1=Nc2nc3ccccc3n2C(c2ccc([N+](=O)[O-])cc2)N1 (configuration not stated)	70.4%	74.6%	74.3%	56.9%	61.2%	58.6%	61.2%	61.3%	65.9%	53.4%	74.7%	65.6%	60.2%	40.3%	–
CC(C)c1ccc(C2N=C(N)Nc3nc4ccccc4n32)cc1 (configuration not stated)	75.7%	78.6%	63.7%	54.7%	71.7%	58.1%	55.4%	55.6%	59.2%	58%	65.6%	49%	61.7%	7.69%	77.5%
CN(C)c1ccc(C2NC(N)=Nc3nc4ccccc4n32)cc1 (configuration not stated)	80.8%	61%	78.8%	70%	57.5%	68.5%	63.2%	64.1%	64%	58%	70.9%	67.7%	60.1%	14.2%	–
NC1=Nc2nc3ccccc3n2C(c2ccc3ccccc3c2)N1 (configuration not stated)	57.3%	66.6%	45%	54.6%	54.8%	44.1%	48.8%	50.2%	61%	58.6%	65%	56.7%	55.3%	55.7%	–
COc1cc(C2NC(N)=Nc3nc4ccccc4n32)ccc1OCc1ccccc1 (configuration not stated)	63.2%	51.7%	41.3%	26.9%	44.6%	45.1%	48.9%	39%	40.1%	13.1%	30.4%	30.5%	1%	21%	–
NC1=NC(c2cccnc2)n2c(nc3ccccc32)N1 (configuration not stated)	64.8%	30.5%	67.8%	57.2%	52.2%	56%	60.7%	65.2%	53.7%	42.4%	58.1%	55.6%	0.93%	52.7%	–
COc1cc(C2NC(N)=Nc3nc4ccccc4n32)cc(OC)c1OC (configuration not stated)	82.2%	79.4%	73.9%	70.1%	60%	61.8%	72%	63.6%	69%	59.4%	69.6%	67.5%	69.9%	32.7%	–
NC1=Nc2nc3ccccc3n2C(c2cccc(Cl)c2Cl)N1 (configuration not stated)	78.6%	75.1%	72.5%	67%	71.5%	68.7%	63.6%	59.6%	61.1%	63.2%	73.1%	67.8%	60.4%	38.4%	–
